What was measured:
[1] = molecular target: T1, SARS-CoV-2 main protease (M^pro) (Severe acute respiratory syndrome coronavirus 2, UniProt P0DTD1); test: Rapid-Fire MS Biochemical Assay measuring Mpro activity (12.5 nM Mpro); conditions: Table 1A, Mpro inhibition, 5 μM substrate peptide, 30 min
[2] = molecular target: T1, SARS-CoV-2 main protease (M^pro); test: Rapid-Fire MS Biochemical Assay measuring Mpro activity (5 nM Mpro); conditions: Mpro inhibition, 5 μM substrate peptide, 120 min
[3] = Table 1B, read-out: Rapid-Fire Assay IC50

SMILES	IC50 [1]	IC50 [2, 3]	IC50 ([2]; Rapid-Fire Assay IC50, Table 1B)
N#CC1CN(c2cccc(Cl)c2)C(=O)N1c1cncc2ccccc12 (racemic) [Compound 2, 1-(3-chlorophenyl)-3-(isoquinolin-4-yl)-2-oxoimidazolidine-4-carbonitrile]	5 nM	< 20 nM	–
N#C[C@@H]1CN(c2cccc(Cl)c2)C(=O)N1c1cncc2ccccc12 (single isomer, unassigned) [Compound 2b]	3000 nM	> 1000 nM	–
N#C[C@H]1CN(c2ccccc2)C(=O)N1c1cncc2ccccc12 (single isomer, unassigned) [Compound 1a]	9 nM	< 20 nM	–
N#CC1CN(c2ccc(Cl)cn2)C(=O)N1c1cncc2ccccc12 (racemic) [Compound 10, 1-(5-chloropyridin-2-yl)-3-(isoquinolin-4-yl)-2-oxoimidazolidine-4-carbonitrile]	5 nM	< 20 nM	–
N#C[C@H]1CN(c2cccc(Cl)c2)C(=O)N1c1cncc2ccccc12 (single isomer, unassigned) [Compound 2a]	< 5 nM	< 20 nM	–
N#CC1CN(c2ccccc2)C(=O)N1c1cncc2ccccc12 (racemic) [Compound 1, 3-(isoquinolin-4-yl)-2-oxo-1-phenylimidazolidine-4-carbonitrile]	37 nM	20 to 200 nM	–
N#CC1CN(c2ccc(C(F)(F)F)cc2)C(=O)N1c1cncc2ccccc12 (racemic) [Compound 4, 3-(isoquinolin-4-yl)-2-oxo-1-(4-(trifluoromethyl)phenyl)imidazolidine-4-carbonitrile]	< 5 nM	< 20 nM	–
N#CC1CN(c2ccc(F)cn2)C(=O)N1c1cncc2ccccc12 (centres unmarked) [Compound 8, 1-(5-fluoropyridin-2-yl)-3-(isoquinolin-4-yl)-2-oxoimidazolidine-4-carbonitrile]	77 nM	20 to 200 nM	–
N#C[C@@H]1CN(c2ccccc2)C(=O)N1c1cncc2ccccc12 (single isomer, unassigned) [Compound 1b]	6400 nM	> 1000 nM	–
N#CC1CN(c2ccc(F)cc2)C(=O)N1c1cncc2ccccc12 (racemic) [Compound 6, 1-(4-fluorophenyl)-3-(isoquinolin-4-yl)-2-oxoimidazolidine-4-carbonitrile]	27 nM	20 to 200 nM	–
N#CC1CN(c2ccc(C(F)(F)F)cn2)C(=O)N1c1cncc2ccccc12 (racemic) [Compound 3, 3-(isoquinolin-4-yl)-2-oxo-1-(5-(trifluoromethyl)pyridin-2-yl)imidazolidine-4-carbonitrile]	7 nM	< 20 nM	–
N#C[C@H]1CN(C2CN(S(=O)(=O)C(F)(F)F)C2)C(=O)N1c1cncc2ccccc12 (single isomer, unassigned) [Compound 129a]	–	20 to 200 nM	–
CC(C)(O)c1cccc(N2C[C@H](C#N)N(c3cncc4ccccc34)C2=O)c1 (single isomer, unassigned) [Compound 69a]	–	20 to 200 nM	–
Cc1ccc(C#N)c(N2C[C@H](C#N)N(c3cncc4ccccc34)C2=O)c1 (single isomer, unassigned) [Compound 116a]	–	< 20 nM	–
CS(=O)(=O)N1CC(N2C[C@@H](C#N)N(c3cncc4ccccc34)C2=O)C1 (single isomer, unassigned) [Compound 130b]	–	> 1000 nM	–
N#C[C@H]1CN(c2ccc(F)c(F)c2)C(=O)N1c1cncc2ccccc12 (single isomer, unassigned) [Compound 72a]	–	< 20 nM	–
N#C[C@H]1CN(c2cnc(C(F)(F)F)cn2)C(=O)N1c1cncc2ccccc12 (single isomer, unassigned) [Compound 32a]	–	< 20 nM	–
COc1ncc(C(F)(F)F)cc1N1C[C@H](C#N)N(c2cncc3ccccc23)C1=O (single isomer, unassigned) [Compound 100a]	–	< 20 nM	–
N#C[C@@H]1CN(c2cccc(F)c2)C(=O)N1c1cncc2ccccc12 (single isomer, unassigned) [Compound 76b]	–	> 1000 nM	–
N#Cc1ccc(Cl)cc1N1CC(C#N)N(c2cncc3ccccc23)C1=O (racemic) [Compound 20, 1-(5-chloro-2-cyanophenyl)-3-(isoquinolin-4-yl)-2-oxoimidazolidine-4-carbonitrile]	–	< 20 nM	–
N#C[C@@H]1CN(c2cccc(OC(F)F)c2)C(=O)N1c1cncc2ccccc12 (single isomer, unassigned) [Compound 89b]	–	> 1000 nM	–
N#Cc1ccc(C(F)(F)F)cc1N1C[C@@H](C#N)N(c2cncc3ccccc23)C1=O (single isomer, unassigned) [Compound 90b]	–	> 1000 nM	–
N#C[C@@H]1CN([C@H]2CC[C@H](C(F)(F)F)CC2)C(=O)N1c1cncc2ccccc12 [Compound 128b, (S)-3-(isoquinolin-4-yl)-2-oxo-1-((1 r,4R)-4-(trifluoromethyl)cyclohexyl)imidazolidine-4-carbonitrile]	–	> 1000 nM	–

SMILES	IC50 [1]	IC50 [2, 3]	IC50 ([2]; Rapid-Fire Assay IC50, Table 1B)
N#CC1CN(c2cccc(F)c2)C(=O)N1c1cncc2ccccc12 (racemic) [Compound 7, 1-(3-fluorophenyl)-3-(isoquinolin-4-yl)-2-oxoimidazolidine-4-carbonitrile]	6 nM	< 20 nM	–
CC(C)(O)c1ccc(N2C[C@@H](C#N)N(c3cncc4ccccc34)C2=O)cc1 (single isomer, unassigned) [Compound 84b]	–	> 1000 nM	–
Cc1ccnc(N2C[C@@H](C#N)N(c3cncc4ccccc34)C2=O)n1 (single isomer, unassigned) [Compound 53b]	–	> 1000 nM	–
N#CC1CN(c2nc(Cl)c[nH]2)C(=O)N1c1cncc2ccccc12 (racemic) [Compound 119, 1-(4-chloro-1H-imidazol-2-yl)-3-(isoquinolin-4-yl)-2-oxoimidazolidine-4-carbonitrile]	–	20 to 200 nM	–
N#CC1CN(C2CCC(F)CC2)C(=O)N1c1cncc2ccccc12 (single isomer, unassigned) [Compound 121d]	–	> 1000 nM	–
COc1cnc(C(F)(F)F)cc1N1C[C@H](C#N)N(c2cncc3ccccc23)C1=O (single isomer, unassigned) [Compound 14a]	–	< 20 nM	–
N#C[C@H]1CN([C@H]2CC[C@H](C(F)(F)F)CC2)C(=O)N1c1cncc2ccccc12 [Compound 128a, (R)-3-(isoquinolin-4-yl)-2-oxo-1-((1 r,4R)-4-(trifluoromethyl)cyclohexyl)imidazolidine-4-carbonitrile]	–	< 20 nM	–
COc1cc(Cl)ccc1N1C[C@@H](C#N)N(c2cncc3ccccc23)C1=O (single isomer, unassigned) [Compound 103b]	–	> 1000 nM	–
C[C@@]1(C#N)CN(c2cccc(Cl)c2)C(=O)N1c1cncc2ccccc12 (single isomer, unassigned) [Compound 40b]	–	> 1000 nM	–
CS(=O)(=O)c1cccc(N2C[C@@H](C#N)N(c3cncc4ccccc34)C2=O)c1 (single isomer, unassigned) [Compound 48b]	–	> 1000 nM	–
COc1ccc(C(F)(F)F)nc1N1C[C@@H](C#N)N(c2cncc3ccccc23)C1=O (single isomer, unassigned) [Compound 47b]	–	> 1000 nM	–
N#C[C@H]1CN(c2cccc(OC(F)(F)F)c2)C(=O)N1c1cncc2ccccc12 (single isomer, unassigned) [Compound 92a]	–	< 20 nM	–
N#C[C@H]1CN(c2ncc(Cl)cn2)C(=O)N1c1cncc2ccccc12 (single isomer, unassigned) [Compound 16a]	–	< 20 nM	–
COc1ccc(C(F)(F)F)cc1N1C[C@@H](C#N)N(c2cncc3ccc(S(C)(=O)=O)cc23)C1=O (single isomer, unassigned) [Compound 38b]	–	> 1000 nM	–
N#Cc1ccc(N2C[C@@H](C#N)N(c3cncc4ccccc34)C2=O)cc1F (single isomer, unassigned) [Compound 73b]	–	–	200 to 1000 nM
N#C[C@H]1CN(c2cccc(Cl)c2)C(=O)N1c1cncc2ccc(C(=O)O)cc12 (single isomer, unassigned) [Compound 33a]	–	< 20 nM	–
N#CC1CN(c2ccc(Cl)cc2)C(=O)N1c1cncc2ccccc12 (centres unmarked) [Compound 5, 1-(4-chlorophenyl)-3-(isoquinolin-4-yl)-2-oxoimidazolidine-4-carbonitrile]	< 5 nM	< 20 nM	–
Cc1ccc(OC(F)F)cc1N1C[C@@H](C#N)N(c2cncc3ccccc23)C1=O (single isomer, unassigned) [Compound 101b]	–	> 1000 nM	–
CC1CC(N2CC(C#N)N(c3cncc4ccccc34)C2=O)C1 (single isomer, unassigned) [Compound 120d]	–	> 1000 nM	–
COc1cc(C#N)ccc1N1C[C@@H](C#N)N(c2cncc3ccccc23)C1=O (single isomer, unassigned) [Compound 19b]	–	> 1000 nM	–
N#CC1CN(c2ccc(F)cc2F)C(=O)N1c1cncc2ccccc12 (racemic) [Compound 66, 1-(2,4-difluorophenyl)-3-(isoquinolin-4-yl)-2-oxoimidazolidine-4-carbonitrile]	–	20 to 200 nM	–
N#CC1CN(c2cccc(OC(F)(F)F)c2)C(=O)N1c1cncc2ccccc12 (racemic) [Compound 92, 3-(isoquinolin-4-yl)-2-oxo-1-(3-(trifluoromethoxy)phenyl)imidazolidine-4-carbonitrile]	–	< 20 nM	–
N#C[C@@H]1CN(c2cccc(OC(F)(F)F)c2)C(=O)N1c1cncc2ccccc12 (single isomer, unassigned) [Compound 92b]	–	200 to 1000 nM	–

Reference: patent US20250092016A1, “COMPOUNDS AND COMPOSITIONS FOR THE TREATMENT OF CORONAVIRAL RELATED DISEASES” (priority 2021, published 2025)
